Experimental data taken from publication PMC6381124, “Aplysinopsin-type and Bromotyrosine-derived Alkaloids from the South China Sea Sponge Fascaplysinopsis reticulata” (Scientific Reports, 2019).

How the values were obtained:
[1] = Cytotoxicity assay (MTT method) against Jurkat cell lines; assay type: cell-based; details: human, Jurkat cells (human T-cell leukemia), Doxorubicin as positive control
Procedure: (§1) The cytotoxicity assay of the isolated compounds were evaluated against human lung carcinoma (A549), human cervical cancer (HeLa), human leukemia (K562), and human T-cell leukemia (Jurkat) cell lines using the MTT method with Doxorubicin as the positive control.

[2] = test system: human cervical cancer (HeLa) cell lines; experiment: Cytotoxicity assay (MTT method) against HeLa cell lines; assay type: cell-based; details: HeLa cells
Procedure: as §1

SMILES	IC50 [1]	IC50 [2]
COC(=O)NCCCCCNC(=O)C1=NO[C@]2(C=C(Br)C(OC)=C(Br)[C@@H]2O)C1 [Compound 19, Subereamolline D]	0.88 µM	–
CN1C(=O)N(C)C(O)(CC2(O)C(=O)Nc3ccccc32)C1=O (single isomer, unassigned; (-)) [(−)-3, (−)-oxoaplysinopsin C]	–	61.6 µM
CN1C(=O)N(C)C(O)(CC2(O)C(=O)Nc3ccccc32)C1=O (single isomer, unassigned; (+)) [(+)-3, (+)-oxoaplysinopsin C]	–	27 µM
